Measurements from patent US12491180B2, “Application of compound in treating pneumonia” (SHENZHEN OPTIMUM BIOLOGICAL TECHNOLOGY CO., LTD., priority 2019, dated 2025).
In brackets after ≈: the same amount, converted by molar mass.

Legend:
[1] = test system: Enterobacter cloacae 11699; experiment: MIC, solid dilution method; format: cell-based; conditions: E. cl 11699, CSE clinical isolate, MHA agar, 37° C., 16-20 hours, read-out: MIC
Protocol: (§1) The above-mentioned glycerol-preserved strains were taken out from the −80° C. refrigerator, streaked and inoculated on MHA plates, labeled, and cultured overnight in a 37° C. incubator.
(§2) The inoculum was prepared directly from bacterial suspension, and several recovered colonies were picked and directly prepared into a bacterial suspension with a turbidity of No. 0.5 McFarland units in normal saline, and a 10-fold dilution was made during inoculation.
(§3) Sterile blank petri dishes were taken, and marked with each FL drug/concentration according to 2-fold dilution, and 10 concentrations of each drug starting from 8 μg/mL were tested.
(§4) 4 bacterial control petri dishes without drug were prepared at the same time as a control.
(§5) The positioning needle and the inoculation needle were installed according to the order of placement of the colony on the inoculation plate. After inoculation, a bacterial solution circle was formed on the petri dish. After the bacterial solution was absorbed by the agar, the petri dish was placed in an incubator at 37° C. for overnight incubation (16-20 hours), and then taken out.

[2] = test system: Enterobacter cloacae 14653; experiment: MIC, solid dilution method; format: cell-based; conditions: E. cl 14653, CRE clinical isolate, MHA agar, 37° C., 16-20 hours, read-out: MIC
Protocol: as §1, §2, §3, §4, §5

[3] = test system: Enterobacter cloacae 11090; experiment: MIC, solid dilution method; format: cell-based; conditions: E. cl 11090, CRE clinical isolate, MHA agar, 37° C., 16-20 hours, read-out: MIC
Protocol: as §1, §2, §3, §4, §5

E. ae 14186 = experiment: MIC, solid dilution method; format: cell-based, Enterobacter aerogenes; conditions: Klebsiella aerogenes; E. ae 14186; MHA agar, 37° C., 16-20 hours; read-out: MIC
Protocol: as §1, §2
(§6) 6 bottles of MHA culture medium 500 mL/bottle were prepared, and the pH was adjusted to 7.2-7.4, sterilized at 121° C. for 15 min, and the medium was placed in a 55° C. water bath to keep warm.
as §3
(§7) […]; 20 mL was aspirated and added to a petri dish consistent with the mark, and then 20 mL of MHA culture medium was added to the rest of the drug-containing culture medium, mixed evenly, that is, the 2-fold diluted drug-containing culture medium; 20 mL was aspirated and added to the petri dish consistent with the mark, and then diluted to the 10th concentration and the […] respectively by repeating the above-mentioned steps, and then poured into the petri dish.
as §4, §5
(§8) The minimum inhibitory concentrations of the compounds against the CRE and CSE strains were determined by the solid dilution method, and the results are shown in Tables 3 and 4.

16 clinical CRE strains = experiment: MIC50, MIC90 and MIC range against 16 clinical CRE strains; format: cell-based; conditions: 16 clinical CRE strains; for MIC50: read-out: MIC50; for MIC90: read-out: MIC90
Protocol: as §1, §2, §6, §3, §7, §4, §5, §8

[4] = test system: Citrobacter freundii 7646; experiment: MIC, solid dilution method; format: cell-based; conditions: C.f 7646, CSE clinical isolate, MHA agar, 37° C., 16-20 hours, read-out: MIC
Protocol: (§9) CRE Citrobacter freundii 9434, 9484 and CSE Citrobacter freundii 7646, a total of 3 strains;
as §1, §2, §6, §3, §7, §4, §5, §8

[5] = test system: Citrobacter freundii 9484; experiment: MIC, solid dilution method; format: cell-based; conditions: C.f 9484, CRE clinical isolate, MHA agar, 37° C., 16-20 hours, read-out: MIC
Protocol: as §9, §1, §2, §6, §3, §7, §4, §5, §8

[6] = test system: Citrobacter freundii 9434; experiment: MIC, solid dilution method; format: cell-based; conditions: C.f 9434, CRE clinical isolate, MHA agar, 37° C., 16-20 hours, read-out: MIC
Protocol: as §9, §1, §2, §6, §3, §7, §4, §5, §8

MIC [1] [µg/mL]	MIC [2] [µg/mL]	MIC [3] [µg/mL]	MIC range (16 clinical CRE strains) [µg/mL]	MIC50 (16 clinical CRE strains) [µg/mL]	MIC90 (16 clinical CRE strains) [µg/mL]	MIC [4] [µg/mL]	MIC [5] [µg/mL]	MIC [6] [µg/mL]	Compound	MIC (E. ae 14186) [µg/mL]
0.03 (≈ 0.0405 µM)	0.25 (≈ 0.337 µM)	0.5 (≈ 0.675 µM)	0.06 to 4	0.125 (≈ 0.169 µM)	4 (≈ 5.4 µM)	0.06 (≈ 0.081 µM)	0.03 (≈ 0.0405 µM)	0.06 (≈ 0.081 µM)	CC1(C)[C@H](NC(=O)/C(=N\O[C@@H](COc2ccc3c(c2)CN(C(=N)N(CCCN)CCCN)C3)C(=O)O)c2csc(N)n2)C(=O)N1OS(=O)(=O)O [Compound 32]	0.125 (≈ 0.169 µM)
0.03 (≈ 0.0448 µM)	0.25 (≈ 0.373 µM)	0.5 (≈ 0.747 µM)		0.5 (≈ 0.747 µM)	8 (≈ 11.9 µM)	0.125 (≈ 0.187 µM)	0.03 (≈ 0.0448 µM)	0.125 (≈ 0.187 µM)	CC1(C)[C@H](NC(=O)/C(=N\O[C@@H](COc2ccc3c(c2)CN(C(=N)NCCN)C3)C(=O)O)c2csc(N)n2)C(=O)N1OS(=O)(=O)O [Compound 44]	0.25 (≈ 0.373 µM)
0.06 (≈ 0.0845 µM)	0.5 (≈ 0.704 µM)	1 (≈ 1.41 µM)		1 (≈ 1.41 µM)	> 8	0.125 (≈ 0.176 µM)	0.06 (≈ 0.0845 µM)	0.125 (≈ 0.176 µM)	CC1(C)[C@H](NC(=O)/C(=N\O[C@@H](COc2ccc3c(c2)CN(C(=N)N[C@@H]2CCCNC2)C3)C(=O)O)c2csc(N)n2)C(=O)N1OS(=O)(=O)O [Compound 41]	0.25 (≈ 0.352 µM)
0.06 (≈ 0.0897 µM)	1 (≈ 1.5 µM)	2 (≈ 2.99 µM)		2 (≈ 2.99 µM)	> 8	0.5 (≈ 0.748 µM)	0.25 (≈ 0.374 µM)	0.5 (≈ 0.748 µM)	CC1(C)[C@H](NC(=O)/C(=N\O[C@@H](COc2ccc(C(=N)N[C@@H]3CCCNC3)cc2)C(=O)O)c2csc(N)n2)C(=O)N1OS(=O)(=O)O [AIC499, reference compound]	1 (≈ 1.5 µM)
0.125 (≈ 0.158 µM)	0.5 (≈ 0.631 µM)	1 (≈ 1.26 µM)		1 (≈ 1.26 µM)	8 (≈ 10.1 µM)	0.125 (≈ 0.158 µM)	0.06 (≈ 0.0757 µM)	0.125 (≈ 0.158 µM)	CC1(C)[C@H](NC(=O)/C(=N\O[C@@H](COc2ccc3c(c2)CN(/C(=N\[C@@H]2CCCNC2)N[C@@H]2CCCNC2)C3)C(=O)O)c2csc(N)n2)C(=O)N1OS(=O)(=O)O [Compound 46]	0.25 (≈ 0.315 µM)
0.125 (≈ 0.182 µM)	1 (≈ 1.46 µM)	2 (≈ 2.92 µM)		2 (≈ 2.92 µM)	> 8	0.5 (≈ 0.729 µM)	0.125 (≈ 0.182 µM)	0.5 (≈ 0.729 µM)	CC1(C)[C@H](NC(=O)/C(=N\O[C@@H](COc2ccc3c(c2)CN(C(=N)NOCCN)C3)C(=O)O)c2csc(N)n2)C(=O)N1OS(=O)(=O)O [Compound 43]	1 (≈ 1.46 µM)
